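Cells were grown in 96-well plates and exposed to each compound for 48 hours at five concentrations; endpoints were interpolated linearly between bracketing concentrations, or set to the highest concentration if not reached. GI50 = concentration required for 50% inhibition of growth. Definition used: TGI = concentration required for complete inhibition of growth.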
Tests used:
Assay in all cases: inhibition of tumour cell growth, NCI panel, 48 h
OVCAR-4 ovarian = system: OVCAR-4 ovarian
ACHN renal = system: ACHN renal
NCI-H460 lung = system: NCI-H460 lung
HCT-116 colon = system: HCT-116 colon
A498 renal = system: A498 renal
SR leukemia = system: SR leukemia
CAKI-1 renal = system: CAKI-1 renal
OVCAR-5 ovarian = system: OVCAR-5 ovarian
SN12C renal = system: SN12C renal
SF-539 CNS = system: SF-539 CNS

Compound	GI50 (OVCAR-4 ovarian) [µM]	TGI (OVCAR-4 ovarian) [µM]	GI50 (ACHN renal) [µM]	TGI (ACHN renal) [µM]	GI50 (NCI-H460 lung) [µM]	TGI (NCI-H460 lung) [µM]	GI50 (HCT-116 colon) [µM]	TGI (HCT-116 colon) [µM]	GI50 (A498 renal) [µM]	TGI (A498 renal) [µM]	GI50 (SR leukemia) [µM]	TGI (SR leukemia) [µM]	GI50 (CAKI-1 renal) [µM]	TGI (CAKI-1 renal) [µM]	GI50 (OVCAR-5 ovarian) [µM]	TGI (OVCAR-5 ovarian) [µM]	GI50 (SN12C renal) [µM]	TGI (SN12C renal) [µM]	GI50 (SF-539 CNS) [µM]	TGI (SF-539 CNS) [µM]
C/C(=N\Nc1ccc(Cl)cn1)c1ccc2ccccc2n1	1.52	> 100	2.49	> 100	2.92	19.6	1.59	> 100	33.4	> 100	1.68	36.1	2.81	87.1	5.44	> 100	3.19	> 100	2.57	27.6
COC(=O)Nc1nc2ccc(C3(c4ccc(F)cc4)OCCO3)cc2[nH]1	7.16	> 100	0.917	> 66.6	0.344	> 36.8	0.409	> 49.6	0.133	2.87	0.122	> 100	0.462	> 100	0.614	> 100	0.584	> 100	0.196	0.52
CN(C)CCC1(C2=CCCC2)CC/C(=C\c2ccc(Cl)cc2)C1=O (stereo not given)	–	21.5	–	23.8	–	26.9	–	22.3	–	19.1	–	7.42	–	19.2	–	25.7	–	24.3	–	25.7
CCc1nc2cc(F)c(/C=C/C(=O)NO)cc2c(=O)n1CCc1ccccc1	0.314	14.9	0.343	2.56	0.31	3.17	0.313	11	0.149	0.736	0.354	53.3	0.305	3.12	0.402	17.6	–	–	0.341	3.36
COc1c2c(cc3c1OCO3)[C@]13C=C[C@H](OC)C[C@H]1N(C2)CC3O (stereo not given in full)	–	> 100	–	> 100	–	> 100	–	> 100	–	> 100	–	> 100	–	> 100	–	> 100	–	> 100	–	> 100
O=C(Nc1n[nH]c2cc(-c3ccccc3)ccc12)C1CC1	> 25	> 25	> 25	> 25	7.15	> 25	6.56	> 25	16.1	> 25	3.31	> 25	9.36	> 25	> 25	> 25	16.3	> 25	13	> 25
Cc1cc2nc(C=C(C(F)(F)F)C(F)(F)F)oc2cc1C	–	7.78	–	> 10	–	> 10	–	2.72	–	> 10	–	> 10	–	7.23	–	7.03	–	5.1	–	6.43
COc1cc2ncnc(-n3ncc4cc(NC(=O)Nc5ccccc5)ccc43)c2cc1OC	1.01	4.26	1.63	11.1	0.706	16.4	1.41	4.82	0.21	0.896	2.03	15.3	2.08	12.1	1.24	13.8	1.14	5.78	0.23	17.3
Cc1cc(C(=O)Nc2ccc3cc(CN4CCOCC4)ccc3n2)c(C)n1-c1ccccc1	1.24	> 23.8	2.6	42.3	2.51	> 52.1	1.68	17.2	3.09	64.2	2.6	> 74.8	1.5	16.7	10.2	57.6	5.75	> 92.3	4.84	27.7
COc1ccc(C2=C(Cl)c3cc(OC)c(OC)cc3C2Cl)cc1 (stereo not given)	–	35.4	–	30.6	–	27.4	–	31.3	–	28.9	–	> 100	–	34.6	–	29.2	–	30.5	–	30.8
CCOC(=O)CCC(=O)C1c2cccc(O)c2C(=O)c2c(O)cc(C)cc21 (stereo not given)	–	1.76	–	2.41	–	1.27	–	1.88	–	4.75	–	4.25	–	3.25	–	1.67	–	3.75	–	0.535
CCCC1=C(CC)C(C(=O)Nc2c(C)cccc2C)=NC(S)N1 (stereo not given)	–	> 100	–	> 100	–	> 100	–	> 100	–	> 100	–	> 100	–	> 100	–	> 100	–	> 100	–	> 100
COc1cc2[nH]c3c(c2cc1OC)CCN[C@]31CC[C@]2(CC3c4c(cc(OC)c(O)c42)CCN3C)C[C@H]1OC (stereo not given in full)	–	43.3	–	62.4	–	63.5	–	31.6	–	70.9	–	40	–	> 100	–	> 100	–	62.8	–	31.5
C=C(C)[C@@H]1CC[C@]2(CO)CC[C@]3(C)[C@H](CC[C@@H]4[C@@]5(C)C=C(C#N)C(=O)C(C)(C)[C@@H]5CC[C@]43C)[C@@H]12	0.769	5.11	1.72	4.77	1.37	5.17	–	–	1.37	2.99	1.53	6.01	2.82	14.4	2.13	5.75	1.17	4.27	2.61	8.34
CNC(=S)/N=C(\N)N(C)C	–	> 10	–	> 100	–	> 100	–	> 100	–	> 100	–	> 100	–	> 100	–	–	–	> 100	–	> 100
O=C(/C=C/c1ccc(Cl)c(Cl)c1)c1ccc2ccccc2c1	–	> 100	–	> 100	–	> 100	–	> 100	–	> 100	–	> 100	–	> 100	–	> 100	–	71.6	–	> 100
